{"source": "patent US5922681A", "about": "“Endothelin antagonists” (Warner-Lambert Company, priority 1992, dated 1999)", "key": {"[1]": {"biological_target": "endothelin receptor (Rat Heart)", "test": "[125I]-ET-1 receptor binding, Rat Heart", "protocol": "(§1) The compounds of Formula I are valuable antagonists of endothelin. […] Compounds of Formula I were tested for their ability to inhibit [^125 I]-ET-1([^125 I]-Endothelin-1) binding in a receptor assay according to the following procedures Doherty, A. M., et al, J. Cardiovascul. Pharmacol. 17(Suppl 7):S59-61 (1991) and Doherty, A. M., et al, Bio. Org."}, "[2]": {"biological_target": "endothelin receptor (Human Placenta)", "test": "[125I]-ET-1 receptor binding, Human Placenta", "protocol": "as §1"}, "[3]": {"system": "endothelin-stimulated arachidonic acid release in cultured vascular smooth muscle cells", "test": "AAR assay for antagonist activity", "assay_type": "cell-based, rabbit", "conditions": "ET-1 0.3 nM", "protocol": "AAR Assay for Antagonist Activity\nAntagonist activity is measured by the ability of added compounds to reduce endothelin-stimulated arachidonic acid release in cultured vascular smooth muscle cells as arachidonic acid release (AAR). [^3 H] Arachidonic Acid Loading Media (LM) is DME/F12+0.5% FCS×0.25 mCi/mL [^3 H] arachidonic acid (Amersham). Confluent monolayers of cultured rabbit renal artery vascular smooth muscle cells were incubated in 0.5 mL of the LM over 18 hours, at 37° C., in 5% CO2. The LM was aspirated and the cells were washed once with the assay buffer (Hank's BSS+10 mM HEPES+fatty acid-free BSA (1 mg/mL), and incubated for 5 minutes with 1 mL of the prewarmed assay buffer. This solution was aspirated, followed by an additional 1 mL of prewarmed assay buffer, and further incubated for another 5 minutes. A final 5-minute incubation was carried out in a similar manner. […] This solution was then collected, […] of scintillation cocktail was added, and the amount of [^3 H] arachidonic acid was determined in a liquid scintillation counter."}, "[4]": {"system": "ET-1-induced vasoconstriction", "conditions": "isolated porcine coronary arteries; cited from earlier work"}, "[5]": {"system": "ETA receptor over the ETB subtype", "conditions": "cited from earlier work"}, "[6]": {"system": "endothelin-induced arachidonic acid release in vascular smooth muscle cells (ETA)", "conditions": "cited from earlier work"}, "[7]": {"system": "endothelin-stimulated constriction in the rabbit femoral renal (ETA), and pulmonary arteries (ETB)", "conditions": "cited from earlier work"}, "ETB": {"system": "ETB", "conditions": "isolated, endothelium-intact porcine pulmonary arteries; cited from earlier work"}, "ET receptor": {"system": "ET receptor", "conditions": "cited from earlier work"}, "[8]": {"system": "ET-1-induced vasoconstriction", "conditions": "isolated rabbit aorta; cited from earlier work"}, "pressor response to ET-1": {"system": "pressor response to ET-1", "conditions": "IV bolus 1 mg/kg; cited from earlier work"}, "ET-1-induced arrythmia": {"system": "ET-1-induced arrythmia", "conditions": "rats; cited from earlier work"}, "[9]": {"system": "vasoconstriction of the basilar artery", "conditions": "canine subarachnoid hemorrhage, intracisternal 0.1 mg; cited from earlier work"}}, "note": "Non-standard residues stand in square brackets, D forms with d. Residues, ends and D or L forms follow the SMILES beside them. No end group written: not given here.", "data": [{"molecule": "C[C@@](Cc1c[nH]c2ccccc12)(NC(=O)OC1C2CC3CC(C2)CC1C3)C(=O)N[C@H](CC(=O)O)Cc1ccccc1", "note": "(relative stereo) [Compound 4, [S-(R*,R*)]-β-[[3-(1H-indol-3-yl)-2-methyl-1-oxo-2-[[(tricyclo[3.3.1.1^3,7]dec-2-yloxy)carbonyl]-amino]propyl]amino]benzenebutanoic acid]", "values": [{"measurement": "IC50", "setting": "[1]", "result": 47.3, "unit": "µM"}, {"measurement": "IC50", "setting": "[2]", "result": 58.3, "unit": "µM"}, {"measurement": "AAR IC50 (μM) (Antag) % inhib at 10 μM", "setting": "[3]", "result": 62.4, "unit": "%"}]}, {"molecule": "CC(C)C[C@@H]1NC(=O)[C@@H](C(C)C)NC(=O)[C@@H]2CCCN2C(=O)[C@@H](CC(=O)O)NC(=O)[C@@H](Cc2c[nH]c3ccccc23)NC1=O", "note": "[BQ-123] (cyclo(L[dW][dD]P[dV]))", "values": [{"measurement": "Antagonism of ET-1-induced vasoconstriction", "setting": "[4]", "result": "antagonize"}]}, {"molecule": "Ac-(β-phenyl)D-Phe-L-Leu-L-Asp-L-lle-L-lle-L-Trp trifluoroacetate [PD 142893]", "values": [{"measurement": "Binding selectivity for the ETA receptor over the ETB subtype", "setting": "[5]", "result": "tenfold"}, {"measurement": "Antagonism of endothelin-induced arachidonic acid release", "setting": "[6]", "result": "functional antagonist"}, {"measurement": "Antagonism of endothelin-stimulated constriction", "setting": "[7]", "result": "antagonizes"}]}, {"molecule": "ET[1,3,11,15-Ala]: linear ET analog, reported selective ETB agonist (ASASSLMDKEAVYFAHLDIIW; Endothelin-1; UniProt P05305 53-73, looked up, variant C1A C3A C11A C15A)", "values": [{"measurement": "Vasorelaxation", "setting": "ETB", "result": "caused vasorelaxation"}]}, {"molecule": "ET[1-20]: ET-1 lacking the C-terminal amino acid (Trp-21) (CSCSSLMDKECVYFCHLDII; ends and bridges not checked; cysteine pairing not given here; UniProt P05305 53-72, looked up, fragment)", "values": [{"measurement": "Functional / vasoconstrictor activity, fold less", "setting": "ET receptor", "result": "approximately 1000 fold"}]}, {"molecule": "ET[6-21, 1,3,11,15-Ala]", "values": [{"measurement": "Vasorelaxation", "setting": "ETB", "result": "caused vasorelaxation"}]}, {"molecule": "ET[8-21,11,15-Ala]", "values": [{"measurement": "Vasorelaxation", "setting": "ETB", "result": "caused vasorelaxation"}]}, {"molecule": "FR 139317", "values": [{"measurement": "pA2, inhibition of ET-1-induced vasoconstriction", "setting": "[8]", "result": 7.2}, {"measurement": "Initial depressor response to ET-1", "setting": "pressor response to ET-1", "result": "no effect"}, {"measurement": "Pressor response to ET-1", "setting": "pressor response to ET-1", "result": "completely inhibited"}, {"measurement": "ET-1-induced arrythmia", "setting": "ET-1-induced arrythmia", "result": "suppressed"}, {"measurement": "Vasoconstriction of the basilar artery after 7 days", "setting": "[9]", "result": "significantly inhibited"}]}, {"molecule": "N-acetyl-ET[10-21]: truncated ET analog, reported selective ETB agonist (Ac-ECVYFCHLDIIW; cysteine pairing not given here; UniProt P05305 62-73, looked up, fragment)", "values": [{"measurement": "Vasorelaxation", "setting": "ETB", "result": "caused vasorelaxation"}]}]}
